# In patent US8686024B2, “Indoline derivatives” (priority 2009, dated 2014):
row,melting point [°C],SMILES
1,225 to 229,O=C(Nc1ccc([N+](=O)[O-])cc1)Oc1ccc2c(c1)CCN2Cc1ccccc1
2,75 to 80,CC(C)c1ccc(NC(=O)Oc2ccc3c(c2)CCN3Cc2cc(N(C)C)c3ccccc3c2)cc1
3,161 to 167,O=C(Nc1ccc2ccccc2c1)Oc1ccc2c(c1)CCN2Cc1ccccc1
4,140 to 144,COc1ccc(NC(=O)Oc2ccc3c(c2)CCN3)cc1OC
5,166 to 170,CC(C)c1ccc(NC(=O)Oc2ccc3c(c2)CCN3)cc1
6,220 to 224,COc1ccc(NC(=O)Oc2ccc3c(c2)CCN3)cc1
7,168 to 171,CC(C)c1ccc(NC(=O)Oc2ccc3c(c2)CCN3Cc2ccco2)cc1
8,149 to 153,COC(=O)c1ccc(CN2CCc3cc(OC(=O)Nc4ccc(C(C)C)cc4)ccc32)cc1
9,109 to 112,CNC(=O)Oc1ccc2c(c1)CCN2
10,175 to 178,O=C(Nc1ccc(-c2ccccc2)cc1)Oc1ccc2c(c1)CCN2Cc1ccccc1
11,194 to 196,CC(C)c1ccc(NC(=O)Oc2ccc3c(c2)CCN3Cc2ccc3cc[nH]c3c2)cc1
12,155 to 160,O=C(Nc1ccc(Oc2ccccc2)cc1)Oc1ccc2c(c1)CCN2Cc1ccccc1
13,152 to 153,COc1cc(CN2CCc3cc(OC(=O)Nc4ccc(C(C)C)cc4)ccc32)ccc1N(C)C
14,170 to 174,CC(C)c1ccc(NC(=O)Oc2ccc3c(c2)CCN3Cc2ccc(O)c(Cl)c2)cc1
15,129 to 133,O=C(NCC1CCCCC1)Oc1ccc2c(c1)CCN2
16,62 to 66,CCCN(CCC)C(=O)C1Cc2cc(OC(=O)Nc3ccc(C(C)C)cc3)ccc2N1Cc1ccccc1 (stereo not drawn)
17,150 to 152,CC(C)c1ccc(NC(=O)Oc2ccc3c(c2)CCN3Cc2ccc3ccccc3n2)cc1
18,105 to 112,O=C(Nc1ccccc1)Oc1ccc2c(c1)CCN2Cc1ccccc1
19,136 to 140,CC(C)c1ccc(NC(=O)Oc2ccc3c(c2)CCN3Cc2ccc3ccccc3c2)cc1
20,171 to 174,O=C(Nc1ccc(C2CCCCC2)cc1)Oc1ccc2c(c1)CCN2Cc1ccccc1
21,195 to 199,CC(C)c1ccc(NC(=O)Oc2ccc3c(c2)CCN3Cc2cccc3ncccc23)cc1
